From PubChem BioAssay (NCI)
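1) Cells in 96-well plates. 2) Compound, 48 h, 5 concentrations. 3) Linear interpolation between surrounding doses. 4) Unreached endpoint = highest concentration. TGI: total growth inhibition.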

How the values were obtained:
Assay in all cases: DTP human tumour cell line panel, 48 h
SNB-19 CNS = test system: SNB-19 CNS
DU-145 prostate = test system: DU-145 prostate
A498 renal = test system: A498 renal
CCRF-CEM leukemia = test system: CCRF-CEM leukemia
COLO 205 colon = test system: COLO 205 colon
HOP-92 NSCLC = test system: HOP-92 NSCLC
HOP-62 NSCLC = test system: HOP-62 NSCLC
SK-MEL-28 melanoma = test system: SK-MEL-28 melanoma
SK-OV-3 ovarian = test system: SK-OV-3 ovarian
OVCAR-8 ovarian = test system: OVCAR-8 ovarian
NCI-H23 lung = test system: NCI-H23 lung
NCI-H460 lung = test system: NCI-H460 lung
SW-620 colon = test system: SW-620 colon
LOX IMVI melanoma = test system: LOX IMVI melanoma
OVCAR-4 ovarian = test system: OVCAR-4 ovarian
MCF7 breast = test system: MCF7 breast
IGROV1 ovarian = test system: IGROV1 ovarian
U251 CNS = test system: U251 CNS
CAKI-1 renal = test system: CAKI-1 renal
HCT-15 colon = test system: HCT-15 colon

SMILES	TGI (SNB-19 CNS) [µM]	TGI (DU-145 prostate) [µM]	TGI (A498 renal) [µM]	TGI (CCRF-CEM leukemia) [µM]	TGI (COLO 205 colon) [µM]	TGI (HOP-92 NSCLC) [µM]	TGI (HOP-62 NSCLC) [µM]	TGI (SK-MEL-28 melanoma) [µM]	TGI (SK-OV-3 ovarian) [µM]	TGI (OVCAR-8 ovarian) [µM]	TGI (NCI-H23 lung) [µM]	TGI (NCI-H460 lung) [µM]	TGI (SW-620 colon) [µM]	TGI (LOX IMVI melanoma) [µM]	TGI (OVCAR-4 ovarian) [µM]	TGI (MCF7 breast) [µM]	TGI (IGROV1 ovarian) [µM]	TGI (U251 CNS) [µM]	TGI (CAKI-1 renal) [µM]	TGI (HCT-15 colon) [µM]
Cc1nc2ccccc2c(=O)n1NC(=O)c1ccc([N+](=O)[O-])cc1	> 100	> 100	> 100	> 100	> 100	> 100	> 100	> 100	> 100	> 100	> 100	> 100	> 100	> 100	> 100	> 100	> 100	> 100		
COc1cc(C=C2N=C(c3ccccc3)N(n3c(-c4ccccc4)nc4ccccc4c3=O)C2=O)cc(OC)c1OC	72.3	79.9		> 100	52.8	33.7	29.9	35.5	91.4	51.4	56.6	47.2	> 100	41.3	96.5	60.7	94.4		> 100	> 100
COc1cc(=O)n2c3ccccc3n(C)c2c1C#N	> 100	> 100	> 100	> 100	> 100	> 100	> 100		> 100	> 100	> 100	> 100	> 100		> 100	> 100	> 100	> 100	> 100	> 100
CCOP(=O)(OCC)C(N)Cc1ccc(OC)c(OC)c1 (stereo not drawn)	> 100	> 100	> 100	> 100	> 100	> 100		> 100		> 100	> 100	> 100	> 100		> 100	> 100	> 100	> 100	> 100	> 100
Cc1nn(C(=O)c2ccc(Cl)cc2)c2c1C(c1cccc([N+](=O)[O-])c1)SC(N)=N2 (stereo not drawn)	> 10	> 10		> 10	> 10	> 10	> 10	> 10	> 10	> 10	> 10	> 10	> 10	> 10	> 10	> 10	> 10	> 10	> 10	7.51
N#Cc1nc(COCc2ccccc2)oc1N	> 100	> 100		> 100	> 100	> 100	> 100	> 100	> 100	> 100	> 100		> 100	> 100	> 100	> 100	> 100	> 100	> 100	> 100
